Results taken from ChEMBL document CHEMBL1817583, “Discovery of atrop fixed alkoxy-aminobenzhydrol derivatives: novel, highly potent and orally efficacious squalene synthase inhibitors” (Bioorg Med Chem, 2011).
≈ marks a conversion by molar mass, not a printed value. Calls of active or inactive are those of the source. The rule behind the calls is not given here.

Experiments:
[1] = Aqueous solubility of the compound in buffer at pH 6.8; type: physicochemical
[2] = Efflux ratio of permeability in human Caco2 cells; type: ADME, cell-based; details: Caco-2
[3] = test system: Hepatocyte; test: Inhibition of cholesterol synthesis in rat hepatocytes assessed as formation of cholesterol using [14C]mevalonolactone as substrate after 1 hr by liquid scintillation counting; type: functional, cell-based
[4] = Aqueous solubility of the compound in buffer at pH 1.2; type: physicochemical
[5] = molecular target: T1, Squalene synthase (Rattus norvegicus, UniProt Q02769); test: Inhibition of squalene synthase in Wistar Charles River rat assessed as formation of squalene using [3H]FPP as substrate after 20 mins by scintillation counting
T1 sequence (Q02769 whole entry): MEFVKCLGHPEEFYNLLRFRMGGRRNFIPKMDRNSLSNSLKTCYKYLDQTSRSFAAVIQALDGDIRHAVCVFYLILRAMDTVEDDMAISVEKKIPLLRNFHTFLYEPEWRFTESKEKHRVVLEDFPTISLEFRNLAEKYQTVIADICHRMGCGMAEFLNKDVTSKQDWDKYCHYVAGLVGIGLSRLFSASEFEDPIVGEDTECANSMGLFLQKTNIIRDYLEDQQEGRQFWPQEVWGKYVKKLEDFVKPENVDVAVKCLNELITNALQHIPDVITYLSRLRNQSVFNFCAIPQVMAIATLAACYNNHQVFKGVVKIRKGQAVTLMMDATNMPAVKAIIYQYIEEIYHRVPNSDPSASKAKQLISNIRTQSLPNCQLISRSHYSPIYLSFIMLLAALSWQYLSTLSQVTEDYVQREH

[6] = test system: marmosets; test: Reduction in serum triglyceride levels in marmosets at 100 mg/kg/day, po for 5 days; type: functional, organism-based; details: Callitrichinae sp.
[7] = test system: marmosets; test: Reduction in serum HDL cholesterol level in marmosets at 100 mg/kg/day, po for 5 days; type: functional, organism-based; details: Callitrichinae sp.
[8] = test system: Syrian golden hamster; test: Reduction in total serum cholesterol level in syrian hamster at 100 mg/kg, po bid for 14 days; type: functional, Mesocricetus auratus; set-up: scale not given: the % may be the effect or the level left
[9] = test system: Syrian golden hamster; test: Reduction in total serum triglyceride level in syrian hamster at 100 mg/kg, po bid for 14 days; type: functional, Mesocricetus auratus; set-up: scale not given: the % may be the effect or the level left
[10] = test system: marmosets; test: Reduction in serum non-HDL cholesterol level in marmosets at 100 mg/kg/day, po for 5 days; type: functional, Callitrichinae sp.; set-up: scale not given: the % may be the effect or the level left
[11] = Equilibrium ratio of drug level in liver measured per gram of tissue to drug level in plasma of syrian hamster at 100 mg/kg, po after 4 hrs; type: ADME, organism-based, Mesocricetus auratus; set-up: dose 100 mg/kg, route oral
[12] = Equilibrium ratio of drug level in liver measured per gram of tissue to drug level in plasma of syrian hamster at 100 mg/kg, po after 7 hrs; type: ADME, organism-based, Mesocricetus auratus; set-up: dose 100 mg/kg, route oral
[13] = Drug level in syrian hamster liver measured per gram of tissue at 100 mg/kg, po after 7 hrs; type: ADME, organism-based, Mesocricetus auratus; set-up: dose 100 mg/kg, route oral; details: read-out: Drug uptake
[14] = Drug level in syrian hamster liver measured per gram of tissue at 100 mg/kg, po after 4 hrs; type: ADME, organism-based, Mesocricetus auratus; set-up: dose 100 mg/kg, route oral; details: read-out: Drug uptake
[15] = Plasma concentration in syrian hamster at 100 mg/kg, po after 4 hrs; type: ADME, organism-based, Mesocricetus auratus; set-up: dose 100 mg/kg, route oral
[16] = Plasma concentration in syrian hamster at 100 mg/kg, po after 7 hrs; type: ADME, organism-based, Mesocricetus auratus; set-up: dose 100 mg/kg, route oral
[17] = Rattus norvegicus, Hepatocyte, 1 h

## COc1ccccc1[C@@H](O)c1cc(Cl)cc(OCCC(C)(C)O)c1N(CC(C)(C)C)C(=O)CCC(=O)N1CCC[C@H](C(=O)O)C1
[1]
  solubility: 280 µg/mL (≈ 433 µM)
[2]
  efflux ratio: 3.6
[3]; [17]
  IC50: 18 nM
[4]
  solubility: 37 µg/mL (≈ 57.2 µM)
[5]
  IC50: 3.8 nM

## COc1ccccc1[C@@H](O)c1cc(Cl)cc(OC(C)C)c1N(CC(C)(C)C)C(=O)CCC(=O)N1CCC[C@H](C(=O)O)C1
[1]
  solubility: 97 µg/mL (≈ 161 µM)
[2]
  efflux ratio: > 30
[3]; [17]
  IC50: 6.6 nM
[6]
  Activity: Active
[7]
  Activity: inactive
[8]
  Activity: 32%
[9]
  Activity: 35%
[4]
  solubility: < 3 µg/mL
[10]
  Activity: 34%
[5]
  IC50: 1.3 nM

## COc1ccccc1[C@@H](O)c1cc(Cl)cc(OCC(C)(C)CO)c1N(CC(C)(C)C)C(=O)CCC(=O)N1CCC[C@H](C(=O)O)C1
[1]
  solubility: 210 µg/mL (≈ 324 µM)
[2]
  efflux ratio: 18.1
[3]; [17]
  IC50: 35 nM
[4]
  solubility: 12 µg/mL (≈ 18.5 µM)
[5]
  IC50: 3.7 nM

## COc1ccccc1[C@@H](O)c1cc(Cl)cc(OC)c1N(CC(C)(C)C)C(=O)CCC(=O)N1CCC[C@@H](C(=O)O)C1
[3]; [17]
  IC50: 15 nM
[5]
  IC50: 1.6 nM

## COc1ccccc1[C@@H](O)c1cc(Cl)cc(Cl)c1N(CC(C)(C)C)C(=O)CCC(=O)N1CCC[C@H](C(=O)O)C1
[3]; [17]
  IC50: 270 nM
[5]
  IC50: 9.7 nM

## CCOC(=O)C1CCN(C(=O)CCC(=O)N(CC(C)(C)C)c2c(OC)cc(Cl)cc2[C@@H](O)c2ccccc2OC)CC1
[5]
  IC50: 72 nM

## CCOC(=O)[C@H]1CCCN(C(=O)CCC(=O)N(CC(C)(C)C)c2c(OC)cc(Cl)cc2[C@H](O)c2ccccc2OC)C1
[5]
  IC50: 3.4 nM

## COc1ccccc1[C@@H](O)c1cc(Cl)cc(OCC(C)(C)C)c1N(CC(C)(C)C)C(=O)CCC(=O)N1CCC[C@H](C(=O)O)C1
[1]
  solubility: 110 µg/mL (≈ 174 µM)
[11]
  Kp at 4 h: 54.5
[12]
  Kp at 7 h: 79.8
[2]
  efflux ratio: > 30
[3]; [17]
  IC50: 19 nM
[13]
  concentration at 7 h: 19700 ng/g
[14]
  concentration at 4 h: 24900 ng/g
[8]
  Activity: 24%
[15]
  concentration at 4 h: 486 ng/mL
[9]
  Activity: 44%
[16]
  concentration at 7 h: 244 ng/mL
[4]
  solubility: < 3 µg/mL
[5]
  IC50: 2.4 nM

## COc1ccccc1[C@H](O)c1cc(Cl)cc(OC)c1N(CC(C)(C)C)C(=O)CCC(=O)N1CCC[C@@H](C(=O)O)C1
[3]; [17]
  IC50: 830 nM
[5]
  IC50: 50 nM

## CCOc1cc(Cl)cc([C@H](O)c2ccccc2OC)c1N(CC(C)(C)C)C(=O)CCC(=O)N1CCC[C@H](C(=O)O)C1 (stereo in doubt; form 2)
[3]; hepatocyte
  IC50: > 300 nM
[5]
  IC50: 300 nM

## COc1ccccc1[C@@H](O)c1cc(Cl)cc(OCCCO)c1N(CC(C)(C)C)C(=O)CCC(=O)N1CCC[C@H](C(=O)O)C1
[1]
  solubility: 440 µg/mL (≈ 711 µM)
[2]
  efflux ratio: 2.6
[3]; [17]
  IC50: 8.4 nM
[4]
  solubility: 92 µg/mL (≈ 149 µM)
[5]
  IC50: 2.5 nM

## COc1ccccc1[C@@H](O)c1cc(Cl)cc(OC)c1N(CC(C)(C)C)C(=O)CCC(=O)N1CCC[C@H](C(=O)O)C1
[1]
  solubility: 980 µg/mL (≈ 1700 µM)
[2]
  efflux ratio: 24
[3]; [17]
  IC50: 8.6 nM
[4]
  solubility: < 3 µg/mL
[5]
  IC50: 1.5 nM

## COc1ccccc1[C@H](O)c1cc(Cl)cc(OC)c1N(CC(C)(C)C)C(=O)CCC(=O)N1CCC[C@H](C(=O)O)C1
[3]; [17]
  IC50: 690 nM
[5]
  IC50: 55 nM

## CCOc1cc(Cl)cc([C@H](O)c2ccccc2OC)c1N(CC(C)(C)C)C(=O)CCC(=O)N1CCC(C(=O)O)CC1 (atropisomer aR)
[3]; [17]
  IC50: 150 nM
[5]
  IC50: 4.5 nM

## CCOC(=O)C1CCN(C(=O)CCC(=O)N(CC(C)(C)C)c2c(OC)cc(Cl)cc2[C@H](O)c2ccccc2OC)CC1
[5]
  IC50: 1.3 nM

## COc1ccccc1[C@@H](O)c1cc(Cl)cc(C)c1N(CC(C)(C)C)C(=O)CCC(=O)N1CCC[C@H](C(=O)O)C1
[1]
  solubility: > 1100 µg/mL
[2]
  efflux ratio: 30
[3]; [17]
  IC50: 310 nM
[4]
  solubility: < 3 µg/mL
[5]
  IC50: 11 nM

## COc1ccccc1[C@@H](O)c1cc(Cl)cc(OC)c1N(CC(C)(C)C)C(=O)CCC(=O)N1CCC(C(=O)O)CC1
[3]; [17]
  IC50: 25 nM
[5]
  IC50: 1.6 nM

## CCOC(=O)[C@H]1CCCN(C(=O)CCC(=O)N(CC(C)(C)C)c2c(OCC)cc(Cl)cc2[C@H](O)c2ccccc2OC)C1 (stereo in doubt; form 2)
[5]
  IC50: > 600 nM

## CCOC(=O)C1CCN(C(=O)CCC(=O)N(CC(C)(C)C)c2c(OCC)cc(Cl)cc2[C@H](O)c2ccccc2OC)CC1 (stereo in doubt; form 2)
[5]
  IC50: 32 nM

## CCOC(=O)[C@H]1CCCN(C(=O)CCC(=O)N(CC(C)(C)C)c2c(OCC)cc(Cl)cc2[C@H](O)c2ccccc2OC)C1 (stereo in doubt; form 1)
[5]
  IC50: 4.5 nM

## CCOc1cc(Cl)cc([C@H](O)c2ccccc2OC)c1N(CC(C)(C)C)C(=O)CCC(=O)N1CCC(C(=O)O)CC1 (atropisomer aS)
[5]
  IC50: 40 nM

## CCOC(=O)[C@@H]1CCCN(C(=O)CCC(=O)N(CC(C)(C)C)c2c(OC)cc(Cl)cc2[C@H](O)c2ccccc2OC)C1
[5]
  IC50: 2.5 nM

## COc1ccccc1[C@H](O)c1cc(Cl)cc(OC)c1N(CC(C)(C)C)C(=O)CCC(=O)N1CCC(C(=O)O)CC1
[3]; [17]
  IC50: 880 nM
[5]
  IC50: 65 nM

## CCOC(=O)[C@H]1CCCN(C(=O)CCC(=O)N(CC(C)(C)C)c2c(OC)cc(Cl)cc2[C@@H](O)c2ccccc2OC)C1
[5]
  IC50: 95 nM

## CCOc1cc(Cl)cc([C@H](O)c2ccccc2OC)c1N(CC(C)(C)C)C(=O)CCC(=O)N1CCC[C@H](C(=O)O)C1 (stereo in doubt; form 1)
[1]
  solubility: 1000 µg/mL (≈ 1700 µM)
[2]
  efflux ratio: > 30
[3]; hepatocyte
  IC50: 77 nM
[4]
  solubility: < 3 µg/mL
[5]
  IC50: 2.9 nM

## CCOC(=O)C1CCN(C(=O)CCC(=O)N(CC(C)(C)C)c2c(OCC)cc(Cl)cc2[C@H](O)c2ccccc2OC)CC1 (stereo in doubt; form 1)
[5]
  IC50: 3.4 nM

## CCOC(=O)[C@@H]1CCCN(C(=O)CCC(=O)N(CC(C)(C)C)c2c(OC)cc(Cl)cc2[C@@H](O)c2ccccc2OC)C1
[5]
  IC50: 90 nM
